The source of these data is publication PMC7901650, “Garcinoic Acid Is a Natural and Selective Agonist of Pregnane X Receptor” (Journal of Medicinal Chemistry, 2020).

Data set [1] deals with T1, hPXR ligand binding domain (LBD) (Homo sapiens, UniProt O75469).
T1 construct: made in house; host or cells: E. coli BL21-Gold
T1 sequence (O75469 146-433 limits assumed): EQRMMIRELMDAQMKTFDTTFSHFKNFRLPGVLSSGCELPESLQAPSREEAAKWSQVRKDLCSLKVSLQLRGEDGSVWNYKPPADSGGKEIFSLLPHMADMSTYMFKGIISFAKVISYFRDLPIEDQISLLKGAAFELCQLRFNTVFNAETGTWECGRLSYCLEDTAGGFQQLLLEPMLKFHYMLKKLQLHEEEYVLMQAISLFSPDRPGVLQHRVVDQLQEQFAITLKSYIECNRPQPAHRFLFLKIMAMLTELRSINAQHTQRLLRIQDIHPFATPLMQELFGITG
The data set is described as follows: Isothermal titration calorimetry, binding to His-tagged hPXR LBD. As to conditions: ITC, 37 °C, pH 7.5. From the text: To obtain direct proof of interaction with the hPXR ligand binding domain (LBD), we performed an isothermic titration calorimetry (ITC) experiment using His-tagged hPXR LBD protein in solution (Figure 1C). ITC measures the affinity, Ka, the Gibbs energy (ΔG = −RT ln Ka), and the changes in enthalpy, ΔH, and entropy, ΔS, associated with the binding of the FKK compounds (ΔG = −RT ln K = ΔH – TΔS). Enthalpic and entropic contributions to binding affinity define the nature of the forces that drive the binding reaction.[40],[41]
ITC was performed using a VP-ITC microcalorimeter from MicroCal/Malvern Instruments (Northampton, MA). The protein and the ligands (in DMSO, 8% vol/vol final concentration) were prepared in 25 mM Hepes, pH 7.5 with 150 mM NaCl. In all of the experiments, the ligand solution was injected in 10-μL aliquots into the calorimetric cell containing PXR-LBD [3 μM] at 37 °C. The respective concentrations of GA (1), 2, and 5 in the syringe were 60 μM each. The heat evolved upon each injection of the ligands was obtained from the integral of the calorimetric signal. The heat associated with binding to PXR-LBD in the cell was obtained by subtracting the heat of dilution from the heat of reaction.

Data set [2] has as its target T2, hPXR (Homo sapiens, UniProt O75469).
T2 construct: GST-LBD
T2 sequence (O75469 146-433 limits assumed): T1 sequence (O75469 146-433 limits assumed)
The experiment in a line: AlphaScreen coactivator recruitment assay, PXR. As to conditions: 10 μM compound concentration. In kind it is biochemical. A general note: In Alpha technology, singlet oxygen from a donor bead excites a nearby acceptor bead.

Take `C/C(=C\CC/C(C)=C/CC[C@]1(C)CCc2cc(O)cc(C)c2O1)CC/C=C(\C)C(=O)O` [GA (1), (2E,6E,10E)-13-[(2R)-6-hydroxy-2,8-dimethyl-chroman-2-yl]-2,6,10-trimethyltrideca-2,6,10-trienoic acid]: in data set [1], the “N (stoichiometry)” value was found to be 0.9, the ΔG is -8.8 kcal/mol, the ΔH was -6.4 kcal/mol and the “−TΔS” value is given as -2.4 kcal/mol. In data set [1] (listed as 1), the ΔG is recorded as -8.8 kcal/mol and the ΔH is -6.4 kcal/mol. Further, the “PXR agonist activity (AlphaScreen, single concentration)” value in data set [2] is listed as “significant PXR agonist activity”.
